Reference: patent publication US20070117770A1, “Human ribosomal DNA (rDNA) and ribosomal RNA (rRNA) nucleic acids and uses thereof” (Cylene Pharmaceuticals, Inc., priority 2005, published 2007)

Tests used:
Test in all cases: Protein kinase inhibition assay
Type in all cases: biochemical
[1] = target: PKA(h) (Homo sapiens, UniProt P17612); settings: read-out: percent residual activity of PKA(h)
Protocol: (§1) Certain compounds were tested for activity in protein kinase inhibition assays. All substrates were dissolved and diluted to working stocks in de-ionized water, apart from histone H1 (10× working stock in 20 mM MOPS pH 7.0), PDKtide (10× working stock in 50 mM Tris pH 7.0) ATF2 (which is typically stored at a 20× working stock in 50 mM Tris pH 7.5, 150 mM NaCl, 0.1 mM EGTA, 0.03% Brij-35, 50% glycerol, 1 mM benzamidine, 0.2 mM PMSF and 0.1% R-mercaptoethanol), KKLNRTLSFAEPG (SEQ ID NO:203) and RRRLSFAEPG (SEQ ID NO:204) (50 mM HEPES pH 7.4) and GGEEEEYFELVKKKK (SEQ ID NO:205) (20 mM MOPS pH 7.0). All kinases were pre-diluted to a 10× working concentration prior to addition into the assay. The composition of the dilution buffer for each kinase is detailed below.
(§2) In a final reaction volume of 25 μl, PKA (h) (5-10 mU) is incubated with 8 mM MOPS pH 7.0, 0.2 mM EDTA, 30 μM LRRASLG (SEQ ID NO:209) (Kemptide), 10 mM MgAcetate and [y-33P-ATP] (specific activity approx. 500 cpm/pmol, concentration as required). The reaction is initiated by the addition of the MgATP mix. After incubation for 40 minutes at room temperature, the reaction is stopped by the addition of 5 μl of a 3% phosphoric acid solution. 10 μl of the reaction is then spotted onto a P30 filtermat and washed three times for 5 minutes in 50 mM phosphoric acid and once in methanol prior to drying and scintillation counting.

[2] = target: Lyn(m) (Mus musculus, UniProt P25911); settings: read-out: percent residual activity of Lyn(m)
Chain of Lyn(m) (P25911 whole entry): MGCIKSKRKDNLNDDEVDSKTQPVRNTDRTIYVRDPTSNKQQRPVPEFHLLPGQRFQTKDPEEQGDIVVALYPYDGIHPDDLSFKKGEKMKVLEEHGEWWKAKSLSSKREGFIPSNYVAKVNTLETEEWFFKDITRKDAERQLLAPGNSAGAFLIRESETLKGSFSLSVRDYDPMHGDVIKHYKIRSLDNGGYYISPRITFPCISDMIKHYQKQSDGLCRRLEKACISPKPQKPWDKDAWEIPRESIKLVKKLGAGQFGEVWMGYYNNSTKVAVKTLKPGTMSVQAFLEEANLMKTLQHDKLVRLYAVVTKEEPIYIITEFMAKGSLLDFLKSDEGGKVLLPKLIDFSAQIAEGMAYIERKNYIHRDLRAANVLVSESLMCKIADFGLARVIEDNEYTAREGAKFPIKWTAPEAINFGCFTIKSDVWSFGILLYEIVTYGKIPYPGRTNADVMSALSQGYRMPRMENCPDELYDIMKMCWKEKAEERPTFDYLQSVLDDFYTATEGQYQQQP
Protocol: as §1
In a final reaction volume of 25 μl, Lyn (m) (5-10 mU) is incubated with 50 mM Tris pH 7.5, 0.1 mM EGTA, 0.1 mM Na3VO4, 0.1% R-mercaptoethanol, 0.1 mg/ml poly(Glu, Tyr) 4:1, 10 mM MgAcetate and [gamma-33P-ATP] (specific activity approx. 500 cpm/pmol, concentration as required). The reaction is initiated by the addition of the MgATP mix. After incubation for 40 minutes at room temperature, the reaction is stopped by the addition of 5 μl of a 3% phosphoric acid solution. […]

[3] = target: Rsk1(h) (Homo sapiens, UniProt Q15418); settings: read-out: percent residual activity of Rsk1(h)
Chain of Rsk1(h) (Q15418 whole entry): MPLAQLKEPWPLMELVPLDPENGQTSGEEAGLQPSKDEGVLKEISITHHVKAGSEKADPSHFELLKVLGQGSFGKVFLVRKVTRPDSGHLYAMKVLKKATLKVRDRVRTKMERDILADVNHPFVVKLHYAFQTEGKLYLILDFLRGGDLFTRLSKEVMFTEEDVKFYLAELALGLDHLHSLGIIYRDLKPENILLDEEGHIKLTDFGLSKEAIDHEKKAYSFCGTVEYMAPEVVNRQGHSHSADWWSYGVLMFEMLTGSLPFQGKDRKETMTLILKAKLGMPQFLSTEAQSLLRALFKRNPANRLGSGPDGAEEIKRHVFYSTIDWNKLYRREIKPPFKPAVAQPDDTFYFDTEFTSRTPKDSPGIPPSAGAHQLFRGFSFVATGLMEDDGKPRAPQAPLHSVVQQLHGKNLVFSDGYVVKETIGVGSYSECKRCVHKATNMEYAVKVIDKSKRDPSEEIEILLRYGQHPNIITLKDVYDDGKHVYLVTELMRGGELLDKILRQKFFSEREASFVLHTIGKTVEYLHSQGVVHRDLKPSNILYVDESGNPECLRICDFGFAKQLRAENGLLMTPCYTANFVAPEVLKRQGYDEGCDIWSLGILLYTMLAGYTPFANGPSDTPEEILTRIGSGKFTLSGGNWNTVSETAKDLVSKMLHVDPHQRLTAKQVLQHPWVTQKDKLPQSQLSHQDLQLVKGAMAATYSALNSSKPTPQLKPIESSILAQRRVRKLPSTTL
Protocol: as §1
as §2, with “μl, Rsk1” for “μl, PKA”, “μM KKKNRTLSVA” for “μM LRRASLG”, “ID NO:212),” for “ID NO:209) (Kemptide),”, “and [gamma-33P-ATP]” for “and [y-33P-ATP]”, “in 75” for “in 50”

[4] = target: MSK1(h) (Homo sapiens, UniProt O75582); settings: read-out: percent residual activity of MSK1(h)
Chain of MSK1(h) (O75582 whole entry): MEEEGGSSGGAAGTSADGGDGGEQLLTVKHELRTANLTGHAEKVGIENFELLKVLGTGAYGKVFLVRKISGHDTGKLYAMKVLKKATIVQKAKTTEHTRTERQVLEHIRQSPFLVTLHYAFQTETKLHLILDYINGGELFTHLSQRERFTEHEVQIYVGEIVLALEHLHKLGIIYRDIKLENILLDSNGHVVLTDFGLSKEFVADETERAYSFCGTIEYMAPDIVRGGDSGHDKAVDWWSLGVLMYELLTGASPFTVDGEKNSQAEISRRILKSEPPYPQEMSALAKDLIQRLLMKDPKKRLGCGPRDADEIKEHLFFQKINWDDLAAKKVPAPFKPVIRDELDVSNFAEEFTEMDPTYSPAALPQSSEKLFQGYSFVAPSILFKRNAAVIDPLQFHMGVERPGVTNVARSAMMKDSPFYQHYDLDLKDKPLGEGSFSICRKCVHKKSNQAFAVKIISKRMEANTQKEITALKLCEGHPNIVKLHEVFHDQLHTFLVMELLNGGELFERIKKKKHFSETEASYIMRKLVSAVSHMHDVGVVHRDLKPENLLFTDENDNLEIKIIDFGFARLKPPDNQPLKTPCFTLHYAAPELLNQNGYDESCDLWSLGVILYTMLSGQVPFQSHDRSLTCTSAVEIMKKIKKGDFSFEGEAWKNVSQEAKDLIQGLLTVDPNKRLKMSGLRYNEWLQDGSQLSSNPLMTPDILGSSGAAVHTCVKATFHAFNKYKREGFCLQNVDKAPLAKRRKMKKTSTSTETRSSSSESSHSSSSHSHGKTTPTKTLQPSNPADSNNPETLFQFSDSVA
Protocol: as §1
as §2, with “μl, MSK1” for “μl, PKA”, “μM GRPRTSSFAEGKK” for “μM LRRASLG”, “ID NO:220),” for “ID NO:209) (Kemptide),”, “and [gamma-33P-ATP]” for “and [y-33P-ATP]”, “in 75” for “in 50”

[5] = target: SAPK3(h) (Homo sapiens, UniProt P53778); settings: read-out: percent residual activity of SAPK3(h)
Chain of SAPK3(h) (P53778 whole entry): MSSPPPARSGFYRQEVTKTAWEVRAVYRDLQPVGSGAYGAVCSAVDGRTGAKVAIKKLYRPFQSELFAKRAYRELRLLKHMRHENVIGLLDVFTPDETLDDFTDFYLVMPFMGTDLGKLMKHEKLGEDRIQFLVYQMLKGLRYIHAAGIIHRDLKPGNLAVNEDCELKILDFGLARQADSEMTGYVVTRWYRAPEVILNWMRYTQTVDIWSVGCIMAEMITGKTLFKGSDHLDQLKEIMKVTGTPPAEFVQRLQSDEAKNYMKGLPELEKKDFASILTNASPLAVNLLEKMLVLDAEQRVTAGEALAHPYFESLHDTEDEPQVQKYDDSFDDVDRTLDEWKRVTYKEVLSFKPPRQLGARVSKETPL
Protocol: as §1
In a final reaction volume of 25 μl, SAPK3 (h) (5-10 mU) is incubated with 25 mM Tris pH 7.5, 0.02 mM EGTA, 0.33 mg/ml myelin basic protein, 10 mM MgAcetate and [gamma-33P-ATP] (specific activity approx. 500 cpm/pmol, concentration as required). The reaction is initiated by the addition of the MgATP mix. After incubation for 40 minutes at room temperature, the reaction is stopped by the addition of 5 μl of a 3% phosphoric acid solution. 10 μl of the reaction is then spotted onto a P30 filtermat and washed three times for 5 minutes in 75 mM phosphoric acid and once in methanol prior to drying and scintillation counting.

[6] = target: Bmx(h) (Homo sapiens, UniProt P51813); settings: read-out: percent residual activity of Bmx(h)
Chain of Bmx(h) (P51813 whole entry): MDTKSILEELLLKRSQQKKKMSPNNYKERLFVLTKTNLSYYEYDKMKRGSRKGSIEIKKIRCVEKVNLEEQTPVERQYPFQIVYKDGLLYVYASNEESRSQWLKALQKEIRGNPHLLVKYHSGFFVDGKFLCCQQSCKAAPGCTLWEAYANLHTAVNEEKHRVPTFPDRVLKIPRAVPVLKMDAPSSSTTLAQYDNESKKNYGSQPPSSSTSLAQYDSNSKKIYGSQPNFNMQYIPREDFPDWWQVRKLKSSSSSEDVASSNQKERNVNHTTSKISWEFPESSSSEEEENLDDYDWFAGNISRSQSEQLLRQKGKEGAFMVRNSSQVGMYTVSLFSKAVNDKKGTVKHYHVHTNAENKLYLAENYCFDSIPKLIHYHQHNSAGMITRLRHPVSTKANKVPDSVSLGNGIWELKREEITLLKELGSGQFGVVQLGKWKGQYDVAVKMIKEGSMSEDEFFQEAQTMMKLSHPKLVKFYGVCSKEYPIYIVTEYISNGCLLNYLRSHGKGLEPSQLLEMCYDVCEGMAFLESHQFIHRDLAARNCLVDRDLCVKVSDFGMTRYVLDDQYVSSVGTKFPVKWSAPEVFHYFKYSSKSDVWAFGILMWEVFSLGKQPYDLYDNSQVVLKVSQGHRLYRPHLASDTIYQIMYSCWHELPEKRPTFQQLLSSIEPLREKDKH
Protocol: as §1
as §2, with “μl, Bmx” for “μl, PKA”, “EDTA, 0.1 mg/ml poly(Glu, Tyr) 4:1,” for “EDTA, 30 μM LRRASLG (SEQ ID NO:209) (Kemptide),”, “and [gamma-33P-ATP]” for “and [y-33P-ATP]”, “a Filtermat A” for “a P30 filtermat”, “in 75” for “in 50”

remaining activity at 2.5 µM [1] [%] | remaining activity at 2.5 µM [2] [%] | remaining activity at 2.5 µM [3] [%] | remaining activity at 2.5 µM [4] [%] | remaining activity at 2.5 µM [5] [%] | remaining activity at 2.5 µM [6] [%] | SMILES
105 | 89 | 85 | 61 | 85 | 68 | CN1CCCC1CCNC(=O)c1cn2c3c(c(N4CCC(c5cnccn5)C4)c(F)cc3c1=O)Oc1cc3ccccc3cc1-2 (stereo not drawn) [Compound A-1]
97 | 106 | 103 | 99 | 111 | 105 | CC(=O)N1CCN(c2ccc3c(=O)c(C(=O)NCCN4CCCC4)c4n(C)c5ccccc5n4c3n2)CC1 [Compound B-1]
